Assay results as given in patent publication US20130022684A1 (HANMI SCIENCE CO., LTD., priority 2010, published 2013).
≈ marks a conversion by molar mass, not a printed value. Where two headings read alike, the source gives them in different places.

What was measured:
[1] = parameters: species or system SD rats; details: rat, in vivo, po, 88 mg
Description: The microcapsules were orally administered to 7 week-old male SD rats (Sprague Dawley, Samtako, 4 rats per one group, 7 days feeding ad libitum) by using Sonde. Blood samples were taken from the rats in a predetermined time interval, and the respective pharmacokinetic profiles were evaluated.

physchem = details: water, thermodynamic from solid
Description: Each of distilled water and artificial intestinal juice (pH 6.8; USP) was added thereto to fill 100 mL, and the mixture was vigorously blended for 1 hr and passed through a 0.45 μm filter, followed by HPLC analysis.

[2] = fenofibric acid in plasma; cited from earlier work

| AUC 0-24 [1] [µg·h/mL] | Cmax [1] [µg/mL] | AUC 0-24 ([1]; male, Sprague-Dawley) [µg·h/mL] | Cmax ([1]; male, Sprague-Dawley) [µg/mL] | solubility at 1 hr (physchem) [µg/mL] | Compound | half-life of elimination in plasma [2] | time of peak plasma levels after administration [2] |
| --- | --- | --- | --- | --- | --- | --- | --- |
| 3477.7 ± 558.9 | 309.4 ± 62.2 | – | – | – | CC(C)(Oc1ccc(C(=O)c2ccc(Cl)cc2)cc1)C(=O)[O-].C[N+](C)(C)CCO [Choline fenofibrate] | – | – |
| – | – | 2078.3 ± 610.5 | 137.2 ± 37.9 | – | CC(C)OC(=O)C(C)(C)Oc1ccc(C(=O)c2ccc(Cl)cc2)cc1 [Fenofibrate] | – | – |
| – | – | 2742.2 ± 218.1 | 209.3 ± 26.1 | 165 (≈ 518 µM) | CC(C)(Oc1ccc(C(=O)c2ccc(Cl)cc2)cc1)C(=O)O [Fenofibric acid, 2-[4-(4-chlorobenzoyl)phenoxy]-2-methyl-propanoic acid] | about 20 hours | about 5 hours |
